Residues, ends and D or L forms follow the SMILES beside them.
How the values were obtained:
[1] = brush border membrane (BBM) stability assay; format: in vitro ADME, human; conditions: brush border membrane extract (e.g. kidney); percent compound remaining after a 5 hour incubation, human brush border membrane assay; read-out: hBBM
How it was run: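 Peptides digested up to 5 h at 37 °C with human brush border membrane extract (e.g. kidney). Timepoints quenched with 50% ACN, 1% FA, centrifuged, intact peptide quantified by selected-ion mass spectrometry. Expressed as percent stable.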

[2] = tested on: mice with diet induced obesity (mouse DIO); assay: cumulative food intake in mouse DIO after IP injection (FIGS. 6 and 7); format: in vivo; conditions: injected IP at t=0; measured at 30, 60, 120 and 180 min
Method: The activities of the following compounds are shown: A, [MimicB36] FN38; B, [His37] FN38; C,
[His35] FN38; D, [Phe33] FN38; E, [Val33] FN38; F, Des-(Ser6,Lys7,Thr8,Gln9) FN38; G, Des-Val16,Val17-FN38; H, [Phe31] FN38; I, Des-(Val16,Val17,Phe24,Ala25,Ser26,Gln27) FN38; J, Des-(Phe1,Leu2,Phe3,His4)FN38; and K, Des-(Phe24,Ala25,Ser26,Gln27)-FN38. […] Points represent mean±sd of n=4 cages (3 mice/cage). Peptide was injected IP at t=0. Food was introduced immediately after injection and amount consumed measured at t=30, 60, 120, and 180 min. In the figure, * p<0.05 vs. vehicle control; ANOVA, Dunnett's test.

NIH/Swiss mice = assay: acute food intake assay, lean overnight-fasted NIH/Swiss mice, intraperitoneal injection; format: in vivo, mouse; conditions: mouse assay, dose of 200 mg/kg, measured at 60 minutes
How it was run: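 Overnight-fasted lean female NIH/Swiss mice (8-24 weeks, group housed) received vehicle or peptide intraperitoneally at time 0, then pre-weighed standard chow. Food consumed was weighed at 30, 60 and 120 min and expressed as % change versus control.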

| remaining at 5 h [1] [%] | SMILES | cumulative food intake in mouse DIO (FIGS. 6A, 6B, 7A, 7B) [2] | Food Intake Inhibition (NIH/Swiss mice) [%] |
| --- | --- | --- | --- |
| 76 | CC(C)C[C@H](NC(=O)[C@H](CCCCN)NC(=O)[C@H](CCC(N)=O)NC(=O)[C@@H](NC(=O)[C@H](CCCCN)NC(=O)[C@H](CO)NC(=O)[C@H](Cc1ccc(O)cc1)NC(=O)[C@H](Cc1c[nH]cn1)NC(=O)[C@H](Cc1ccccc1)NC(=O)[C@H](CC(C)C)NC(=O)[C@@H](N)Cc1ccccc1)[C@@H](C)O)C(=O)NCC(=O)N[C@@H](CCCCN)C(=O)N[C@@H](CO)C(=O)N[C@@H](CC(N)=O)C(=O)N[C@@H](CCC(=O)O)C(=O)N[C@@H](CCC(=O)O)C(=O)N[C@@H](CC(C)C)C(=O)N[C@@H](CCC(N)=O)C(=O)N[C@@H](CO)C(=O)N1CCC[C@H]1C(=O)N[C@@H](CO)C(=O)N[C@@H](CCCNC(=N)N)C(=O)NCC(=O)N[C@@H](Cc1ccc(O)cc1)C(=O)N[C@@H](Cc1ccccc1)C(=O)N[C@@H](CC(C)C)C(=O)N[C@@H](Cc1ccccc1)C(=O)N[C@@H](CCCCN)C(=O)N1CCC[C@H]1C(=O)N[C@@H](CCCNC(=N)N)C(=O)N[C@@H](CC(N)=O)C(N)=O [Des-(Val16,Val17,Phe24-Gln27)[K35]FN38] (H-FLFHYSKTQKLGKSNEELQSPSRGYFLFKPRN-NH2; N-terminus assumed) | reduction of cumulative food intake | −54 |
| 91 | CC(C)C[C@H](NC(=O)[C@H](CCCCN)NC(=O)[C@H](CCC(N)=O)NC(=O)[C@@H](NC(=O)[C@H](CCCCN)NC(=O)[C@H](CO)NC(=O)[C@H](Cc1ccc(O)cc1)NC(=O)[C@H](Cc1c[nH]cn1)NC(=O)[C@H](Cc1ccccc1)NC(=O)[C@H](CC(C)C)NC(=O)[C@@H](N)Cc1ccccc1)[C@@H](C)O)C(=O)NCC(=O)N[C@@H](CCCCN)C(=O)N[C@@H](CO)C(=O)N[C@@H](CC(N)=O)C(=O)NCC(=O)N[C@@H](Cc1ccc(O)cc1)C(=O)N[C@@H](Cc1ccccc1)C(=O)N[C@@H](CC(C)C)C(=O)N[C@@H](Cc1ccccc1)C(=O)N[C@@H](CCCNC(=N)N)C(=O)N1CCC[C@H]1C(=O)N[C@@H](CCCNC(=N)N)C(=O)N[C@@H](CC(N)=O)C(N)=O [Des-(Val16-Arg29)FN38] (H-FLFHYSKTQKLGKSNGYFLFRPRN-NH2; N-terminus assumed) | reduction of cumulative food intake | −42 |
| 80 | CC(C)C[C@H](NC(=O)[C@H](CCCCN)NC(=O)[C@H](CCC(N)=O)NC(=O)[C@@H](NC(=O)[C@H](CCCCN)NC(=O)[C@H](CO)NC(=O)[C@H](Cc1ccc(O)cc1)NC(=O)[C@H](Cc1c[nH]cn1)NC(=O)[C@H](Cc1ccccc1)NC(=O)[C@H](CC(C)C)NC(=O)[C@@H](N)Cc1ccccc1)[C@@H](C)O)C(=O)NCC(=O)N[C@@H](CCCCN)C(=O)N[C@@H](CO)C(=O)N[C@@H](CC(N)=O)C(=O)N[C@@H](CO)C(=O)N[C@@H](CCCNC(=N)N)C(=O)NCC(=O)N[C@@H](Cc1ccc(O)cc1)C(=O)N[C@@H](Cc1ccccc1)C(=O)N[C@@H](CC(C)C)C(=O)N[C@@H](Cc1ccccc1)C(=O)N[C@@H](CCCNC(=N)N)C(=O)N1CCC[C@H]1C(=O)N[C@@H](CCCNC(=N)N)C(=O)N[C@@H](CC(N)=O)C(N)=O [Des-(Val16-Gln27)FN38] (H-FLFHYSKTQKLGKSNSRGYFLFRPRN-NH2; N-terminus assumed) | reduction of cumulative food intake | −42 |

Reference: patent US20090209460A1, “COMPOSITIONS AND METHODS FOR TREATING OBESITY AND RELATED METABOLIC DISORDERS” (Amylin Pharmaceuticals, Inc., priority 2005, published 2009)
